# Assay results from ChEMBL document CHEMBL4118281, “Azoalkyl ether imidazo[2,1-b]benzothiazoles as potentially antimicrobial agents with novel structural skeleton” (2018).
# How the values were obtained:
# Escherichia coli [1] = test: Antibacterial activity against Escherichia coli DH52 after 24 hrs by micro broth dilution method; format: functional; settings: DH52, 24 h
# Staphylococcus aureus [2] = test: Antibacterial activity against methicillin-resistant Staphylococcus aureus N315 after 1 passage; format: functional
# Escherichia coli [3] = test: Antibacterial activity against Escherichia coli JM109 after 24 hrs by micro broth dilution method; format: functional; settings: JM109, 24 h
# Bacillus = test: Antibacterial activity against Bacillus proteus ATCC 13315 after 24 hrs by micro broth dilution method; format: functional; settings: ATCC 13315, 24 h
# Shigella dysenteriae = test: Antibacterial activity against Shigella dysenteriae after 24 hrs by micro broth dilution method; format: functional
# Staphylococcus aureus [4] = test: Antibacterial activity against methicillin-resistant Staphylococcus aureus N315 after 3 passages; format: functional
# Salmonella typhi = test: Antibacterial activity against Bacillus typhi after 24 hrs by micro broth dilution method; format: functional, Salmonella enterica subsp. enterica serovar Typhi; settings: Salmonella enterica
# Staphylococcus aureus [5] = test: Antibacterial activity against methicillin-resistant Staphylococcus aureus N315 after 6 passages; format: functional
# Staphylococcus aureus [6] = test: Antibacterial activity against methicillin-resistant Staphylococcus aureus N315 after 8 passages; format: functional
# Bacillus subtilis = test: Antibacterial activity against Bacillus subtilis after 24 hrs by micro broth dilution method; format: functional
# Staphylococcus aureus [7] = test: Antibacterial activity against Staphylococcus aureus ATCC 25923 after 24 hrs by micro broth dilution method; format: functional; settings: ATCC 25923, 24 h
# Staphylococcus aureus [8] = test: Antibacterial activity against methicillin-resistant Staphylococcus aureus N315 after 24 hrs by micro broth dilution method; format: functional; settings: N315, 24 h
# Staphylococcus aureus [9] = test: Antibacterial activity against methicillin-resistant Staphylococcus aureus N315 after 5 passages; format: functional
# Staphylococcus aureus [10] = test: Antibacterial activity against methicillin-resistant Staphylococcus aureus N315 after 7 passages; format: functional
# Staphylococcus aureus [11] = test: Antibacterial activity against methicillin-resistant Staphylococcus aureus N315 after 2 passages; format: functional
# Micrococcus luteus = test: Antibacterial activity against Micrococcus luteus ATCC 4698 after 24 hrs by micro broth dilution method; format: functional; settings: NCTC 2665, 24 h
# Pseudomonas aeruginosa = test: Antibacterial activity against Pseudomonas aeruginosa after 24 hrs by micro broth dilution method; format: functional
# Staphylococcus aureus [12] = test: Antibacterial activity against methicillin-resistant Staphylococcus aureus N315 after 4 passages; format: functional
# Saccharomyces cerevisiae = test: Antifungal activity against Beer yeast after 24 hrs by two fold serial dilution based spectrophotometric analysis; format: functional
# Pichia norvegensis = test: Antifungal activity against Candida mycoderma after 24 hrs by two fold serial dilution based spectrophotometric analysis; format: functional
# Candida albicans = test: Antifungal activity against Candida albicans after 24 hrs by two fold serial dilution based spectrophotometric analysis; format: functional
# Aspergillus flavus = test: Antifungal activity against Aspergillus flavus after 24 hrs by two fold serial dilution based spectrophotometric analysis; format: functional
# Cyberlindnera jadinii = test: Antifungal activity against Candida utilis after 24 hrs by two fold serial dilution based spectrophotometric analysis; format: functional; settings: Williopsis jadinii
SMILES,MIC (Escherichia coli [1]) [µg/mL],MIC (Escherichia coli [3]) [µg/mL],MIC (Bacillus) [µg/mL],MIC (Shigella dysenteriae) [µg/mL],MIC (Salmonella typhi) [µg/mL],MIC (Bacillus subtilis) [µg/mL],MIC (Staphylococcus aureus [7]) [µg/mL],MIC (Staphylococcus aureus [8]) [µg/mL],MIC (Micrococcus luteus) [µg/mL],MIC (Pseudomonas aeruginosa) [µg/mL],MIC (Saccharomyces cerevisiae) [µg/mL],MIC (Pichia norvegensis) [µg/mL],MIC (Candida albicans) [µg/mL],MIC (Aspergillus flavus) [µg/mL],MIC (Cyberlindnera jadinii) [µg/mL],other results
O=C(N[C@H](CO)[C@H](O)c1ccc([N+](=O)[O-])cc1)C(Cl)Cl [CHLORAMPHENICOL],32,32,32,16,32,32,16,16,8,32,–,–,–,–,–,MIC (Staphylococcus aureus [2]): 14 µM; MIC (Staphylococcus aureus [4]): 14 µM; MIC (Staphylococcus aureus [5]): 33 µM; MIC (Staphylococcus aureus [6]): 67 µM; MIC (Staphylococcus aureus [9]): 33 µM; MIC (Staphylococcus aureus [10]): 67 µM; MIC (Staphylococcus aureus [11]): 14 µM; MIC (Staphylococcus aureus [12]): 33 µM
CCOc1ccc2c(c1)sc1nc(-c3ccccc3)c(COCCCCCCCCCCn3cncn3)n12,32,64,64,64,128,32,8,64,64,8,128,> 512,> 512,> 512,> 512,–
Cc1ncc([N+](=O)[O-])n1CCCCCOCc1c(-c2ccccc2)nc2sc3ccccc3n12,8,2,16,16,32,16,4,8,64,8,> 512,64,8,16,128,–
Cc1ncc([N+](=O)[O-])n1CCCCCCCCCCOCc1c(-c2ccccc2)nc2sc3ccccc3n12,16,8,16,32,64,16,16,16,256,16,256,64,8,16,128,–
O=[N+]([O-])c1cn(CCCOCc2c(-c3ccccc3)nc3sc4ccccc4n23)cn1,4,8,4,8,32,2,4,8,256,2,64,32,2,16,128,–
CCOc1ccc2c(c1)sc1nc(-c3ccccc3)c(COCCCCCCCCCCn3cnc([N+](=O)[O-])c3)n12,64,512,256,8,32,32,128,32,512,32,256,128,256,64,512,–
CCOc1ccc2c(c1)sc1nc(-c3ccccc3)c(COCCCn3c([N+](=O)[O-])cnc3C)n12,16,32,32,8,8,16,32,16,128,32,8,64,32,64,256,–
c1ccc(-c2nc3sc4ccccc4n3c2COCCCCCCCCCCn2cncn2)cc1,32,64,128,16,16,16,32,16,64,32,16,16,16,16,> 512,–
c1ccc(-c2nc3sc4ccccc4n3c2COCCCn2cncn2)cc1,16,16,16,16,32,8,4,16,64,4,64,32,4,16,64,–
CCOc1ccc2c(c1)sc1nc(-c3ccccc3)c(COCCCn3cncn3)n12,> 512,256,> 512,> 512,> 512,> 512,> 512,> 512,> 512,> 512,128,64,16,64,64,–
